In patent US9260756B2, “Esophageal microRNA expression profiles in eosinophilic esophagitis” (CHILDREN'S HOSPITAL MEDICAL CENTER, priority 2012, dated 2016):

How the values were obtained:
miR-375 = test: qRT-PCR of miR-375 in esophageal biopsies of EE patients; type: in vivo, human; details: EE patients that responded to therapy, qPCR normalized to U6
From the text: Patients were selected without regard to age, race, or sex. Normal patients presented to the clinic with symptoms consistent with gastroesophageal reflux disease or EE, but the endoscopic and histologic findings for these patients were normal. […] The active chronic esophagitis patients had eosinophil counts of 1-15 per 400×hpf in the esophageal biopsies. Patients with systemic or swallowed topical glucocorticoid use were excluded from the selection of active EE or active chronic esophagitis patients.
Levels of miRNA expression were measured quantitatively by using the TaqMan MicroRNA Assays (Applied Biosystems), following the manufacturer's protocol. The expression levels were normalized to the U6 endogenous control. Relative expression was calculated as previously described (Lu, T. et al. J. Immunol. 182:4994-5002 (2009)).

IGF1R = target: T1, IGF1R (Mus musculus, UniProt Q60751); test: IGF1R expression by western blot after picropodophyllin treatment; type: cell-based; details: day 10, after 2-day treatment with 2 μM picropodophyllin, both miR-223+/+ and miR-223-/- cultures
T1 construct: endogenous in cells; host or cells: bone marrow-derived eosinophil (progenitor) cultures from miR-223+/+ and miR-223-/- mice
Description: Cells were rapidly washed in phosphate buffered saline and lysed in M-PER mammalian protein extraction reagent (Pierce, Rockford, Ill.), according to the manufacturer's protocol. Protease inhibitor cocktails (Pierce) and phosphatase inhibitor cocktails (Pierce) were added to the M-PER protein extraction reagent immediately before lysis. Western blot analysis was performed, as described in a previous protocol (Lim, E. et al. J. Biol. Chem. 286:13193-204 (2011)). The assay was conducted using an anti-IGF1R antibody (Cell Signaling Technology, Danvers, Mass.) and an anti-GAPDH antibody (Abcam, Cambridge, UK).
(§1) Bone marrow-derived eosinophils were re-suspended at a concentration of 1×10^6 cells/ml and treated with DMSO or 2 μM of picropodophyllin at day 8 (Yin, S. et al. Neuro. Oncol. 12:19-27 (2010)). Cell growth was determined by cell counting using a hemacytometer on day 10 and day 12. Cell lysates were collected on day 10, and levels of IGF1R expression were determined by western blot.

[1] = system: bone marrow-derived eosinophils; test: Cell growth after picropodophyllin treatment, cell counting using a hemacytometer; type: cell-based, mouse; details: for growth of miR-223+/+ and miR-223-/- eosinophil cultures: 2 μM picropodophyllin from day 8, counted day 10 and day 12, vs DMSO
Description: Bone marrow cells were collected from femurs and tibia of the mice, and the stem/progenitor cell-enriched low-density fraction was isolated by gradient centrifugation using the Histopaque 1083 (Sigma), according to the manufacturer's protocol. The low density fraction of bone marrow cells were cultured in IMDM with 10% FBS, 100 U/ml penicillin, and 100 μg/ml streptomycin supplemented with 100 ng/mL stem cell factor and 100 ng/mL FLT-3 ligand (Peprotech) from day 0 to day 4.
The stem cell factor and FLT-3 ligand were replaced with 10 ng/mL IL-5 on day 4, and the cells were cultured for an additional 10-12 days in the presence of IL-5 (Dyer, K. et al. J. Immunol. 181:4004-9 (2008)). The culture media was changed every other day, and cells were counted and concentration was adjusted to 1×10^6/mL during each media change. Eosinophil maturity was assessed by FACS staining for CCR3 and Siglec-F and/or Diff-Quik (Fisher Scientific) staining of cytospin preparations. Eosinophil progenitor growth was assessed by counting the cells every 2 days using a hemacytometer.
as §1

[2] = system: human esophageal epithelial cells; test: miRNA expression in IL-13-stimulated human esophageal epithelial cells (microarray, qPCR); type: cell-based; details: after 24 and 48 hours of IL-13 stimulation, normalized to U6
Description: (§2) Human esophageal epithelial cells derived from human patient biopsies were cultured, as described in a previous protocol (Blanchard, C. et al. J. Allergy Clin. Immunol. 120:1292-300 (2007)). The human bronchial epithelial cell line HBEC was cultured as previously described (Ramirez, R. et al. Cancer Res. 64:9027-34 (2004)). The normal human bronchial epithelial cells (Lonza, Basel, Switzerland) were cultured, as described in a previous protocol (Kariyawasam, H. et al. J. Allergy Clin. Immunol. 124:454-462 (2009)). The U937 monocytes and Jurkat T cells were cultured in RPMI 1640 medium (Fisher Scientific) supplemented with 10% FBS, 100 U/mL penicillin, and 100 μg/ml streptomycin. […]
(§3) Human esophageal epithelial cells and bronchial epithelial cells were stimulated with media or 100 ng/mL IL-13 for 24 hours. […] RNA quality was assessed using the 2100 bioanalyzer (Agilent Technologies), and only samples with RNA integrity number >8 were used. […]
(§4) The miRNAs differentially regulated between unstimulated and IL-13 stimulated samples were identified by normalizing the expression data to the average of two endogenous control probes, namely RNU44 and RNU48, then filtered on cycle threshold values <35 and at least a 2-fold change between unstimulated and IL-13-stimulated samples. Statistical significance was determined at p<0.05 with Benjamini Hochberg false discovery rate correction. […]

[3] = system: human bronchial epithelial cells; test: miRNA expression in IL-13-stimulated human bronchial epithelial cells (microarray, qPCR); type: cell-based; details: normal human bronchial epithelial cells, after 24 and 48 hours of IL-13 stimulation, normalized to U6
Description: as §2, §3, §4

T1 sequence (Q60751 31-1373): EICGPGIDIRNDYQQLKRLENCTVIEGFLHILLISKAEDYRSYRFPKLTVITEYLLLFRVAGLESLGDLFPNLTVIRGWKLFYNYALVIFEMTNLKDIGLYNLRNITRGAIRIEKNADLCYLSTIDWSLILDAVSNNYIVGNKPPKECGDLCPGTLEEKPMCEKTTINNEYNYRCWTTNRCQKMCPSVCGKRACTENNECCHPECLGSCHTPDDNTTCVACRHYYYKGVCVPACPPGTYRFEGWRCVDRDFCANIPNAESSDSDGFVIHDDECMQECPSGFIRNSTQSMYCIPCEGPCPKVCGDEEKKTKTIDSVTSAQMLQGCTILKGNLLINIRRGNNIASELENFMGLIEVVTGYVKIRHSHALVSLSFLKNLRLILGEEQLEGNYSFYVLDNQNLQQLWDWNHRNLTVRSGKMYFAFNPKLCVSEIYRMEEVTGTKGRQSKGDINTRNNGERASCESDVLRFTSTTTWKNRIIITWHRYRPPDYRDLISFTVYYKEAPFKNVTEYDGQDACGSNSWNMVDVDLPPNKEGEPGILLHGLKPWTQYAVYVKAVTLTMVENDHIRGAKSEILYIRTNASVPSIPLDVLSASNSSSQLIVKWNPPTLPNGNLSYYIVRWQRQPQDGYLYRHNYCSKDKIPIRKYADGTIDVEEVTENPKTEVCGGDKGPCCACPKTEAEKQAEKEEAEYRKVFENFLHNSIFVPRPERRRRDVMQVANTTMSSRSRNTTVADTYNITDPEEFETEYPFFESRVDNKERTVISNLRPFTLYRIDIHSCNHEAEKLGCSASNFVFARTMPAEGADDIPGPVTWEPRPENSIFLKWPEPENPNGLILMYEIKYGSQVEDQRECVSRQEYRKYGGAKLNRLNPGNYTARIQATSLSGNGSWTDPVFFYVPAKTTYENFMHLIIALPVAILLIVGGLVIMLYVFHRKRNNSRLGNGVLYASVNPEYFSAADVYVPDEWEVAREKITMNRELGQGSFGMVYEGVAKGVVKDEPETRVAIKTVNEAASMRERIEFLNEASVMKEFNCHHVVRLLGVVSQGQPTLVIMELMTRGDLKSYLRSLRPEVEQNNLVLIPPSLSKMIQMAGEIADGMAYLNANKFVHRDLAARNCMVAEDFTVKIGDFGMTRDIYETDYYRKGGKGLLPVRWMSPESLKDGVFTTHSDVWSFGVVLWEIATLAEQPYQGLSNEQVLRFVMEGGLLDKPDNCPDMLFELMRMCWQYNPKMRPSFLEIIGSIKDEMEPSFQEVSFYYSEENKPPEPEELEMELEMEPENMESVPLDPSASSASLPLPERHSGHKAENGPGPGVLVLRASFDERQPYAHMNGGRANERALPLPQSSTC

CCC(=O)O[C@]1(C(=O)SCF)[C@H](C)C[C@H]2[C@@H]3C[C@H](F)C4=CC(=O)C=C[C@]4(C)[C@@]3(F)[C@@H](O)C[C@@]21C [fluticasone propionate] was tested, and the “miR-375 levels in esophageal tissue” value (miR-375) was “comparable to normal healthy controls”.
In the case of COc1cc([C@@H]2c3cc4c(cc3[C@H](O)[C@H]3COC(=O)[C@@H]23)OCO4)cc(OC)c1OC [picropodophyllin], the “IGF1 receptor expression level” value (IGF1R) is reported as “nearly complete down-regulation”, the “growth of miR-223+/+ and miR-223-/- eosinophil cultures” value [1] is reported as “inhibited” and the “growth of miR-223+/+ and miR-223-/- eosinophil cultures” value ([1]; listed as pricopodphyllin) is reported as “inhibits”. The “increased proliferation seen in miR-223-/- cultures” value ([1]; 2 μM picropodophyllin, miR-223-/- vs miR-223+/+ cultures) was “completely reversing”.
With “IL-13: cytokine used at 100 ng/mL to stimulate human esophageal and bronchial epithelial cells” the miR-375 expression [2] was “down-regulated” and the miR-375 expression [3] was “down-regulated”.
